Test results: PMC3189933, “Acylpeptide Hydrolase Inhibition as Targeted Strategy to Induce Proteasomal Down-Regulation” (PLoS ONE, 2011)

Tests used:
[1] = target: T1, partially purified proteasome from Caco-2 cells (Homo sapiens, UniProt P28074); test: CT-like activity of partially purified proteasome from Caco-2 cells (cell-free); assay type: biochemical; settings: proteasome 0.12 mg/mL, pre-incubated 30 min at 37°C
T1 construct: a partially purified proteasome fraction from differentiated Caco-2 cells; endogenous in cells; host or cells: Caco-2
T1 sequence (P28074 60-263): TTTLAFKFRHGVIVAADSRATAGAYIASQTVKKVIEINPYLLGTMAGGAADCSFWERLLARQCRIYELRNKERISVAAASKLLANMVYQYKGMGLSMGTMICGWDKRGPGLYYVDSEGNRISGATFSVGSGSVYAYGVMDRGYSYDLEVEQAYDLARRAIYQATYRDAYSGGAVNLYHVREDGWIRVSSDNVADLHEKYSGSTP
Protocol: APEH from Sulfolobus solfataricus was purified as previously reported. Partial purification of human APEH and proteasome was carried out from protein extracts of Caco-2 cell. Briefly, protein extracts (500 µg) were fractionated by gel filtration chromatography on a Superdex 200 PC 3.2/30 column connected to a SMART System (Pharmacia) equilibrated in buffer 50 mM Tris-HCl, pH 7.5, 100 mM NaCl, at 0.1 mL/min. The eluted fractions were assayed using the specific substrates for APEH and the proteasome. The active fractions were collected and used for further analysis.
Protease inhibitor activities of the SsCEI peptides and the CLA isomers were carried out using a fixed amount of APEH or partially purified proteasome (3–5 nM and 0.12 mg/mL, respectively), and increasing the SsCEI and CLA isomer concentrations. Mixtures were pre-incubated for 30 min at 37°C before the addition of the substrate, and the enzymatic activities were followed as described above. Protease inhibitor activities of the SsCEI peptides and the CLA isomers were determined towards APEHSs. The protease and increasing concentrations of the inhibitors were mixed and preincubated for 30 min at 80°C before the addition of the specific substrate. The residual enzymatic activity was determined using the assay procedure described above.

BHK cells = test: Cytotoxicity in BHK cells; assay type: cell-based, Baby Hamster; settings: 100 µM, 24 h or 48 h; data not shown
Protocol: (§1) The cells were plated in 12-well plates, to a confluence of 60% for the 24-h incubations, and 40% for 48-h exposure to PIs. These treatments were initiated 24-h after the plating of the cells. Phase-contrast images of the cells were taken just before the lysis of the cells for protein analysis, using a Lica DM6000 inverted microscope.

Caco-2 cells = test: LDH release cytotoxicity assay in Caco-2 cells; settings: 48 h
Protocol: The release of LDH was used as the marker for cell toxicity [48]. The culture supernatants were sampled at the end of the incubations and centrifuged (4,000×g, 5 min, and 4°C). Aliquots of the clear supernatant (10 µL) were incubated with 190 µL reaction buffer (200 mM Tris/HCl, pH 8.0, 0.7 mM p-iodonitrotetrazolium violet, 50 mM L-lactic acid, 0.3 mM phenazine methoxysulphate, 0.4 mM NAD,) for 30 min at 37°C. Absorbance was measured at 490 nm and the results were expressed as percentages of total LDH release from control cultures treated with 1% (w/v) Triton X-100 and calculated as: [(experimental value - blank value)/(total lysis -blank value)−100].

porcine APEH = target: T2, porcine APEH (Sus scrofa, UniProt P19205); test: Time-dependent inhibition of APEH; assay type: biochemical; settings: pre-incubation at least 20 min at 37°C, then diluted 1:5 into assay mixture with substrate
T2 construct: mammalian APEHs purified from both porcine liver and human colon carcinoma intestinal cells (Caco-2); purchased Takara; host or cells: porcine liver
T2 sequence (P19205 1-732): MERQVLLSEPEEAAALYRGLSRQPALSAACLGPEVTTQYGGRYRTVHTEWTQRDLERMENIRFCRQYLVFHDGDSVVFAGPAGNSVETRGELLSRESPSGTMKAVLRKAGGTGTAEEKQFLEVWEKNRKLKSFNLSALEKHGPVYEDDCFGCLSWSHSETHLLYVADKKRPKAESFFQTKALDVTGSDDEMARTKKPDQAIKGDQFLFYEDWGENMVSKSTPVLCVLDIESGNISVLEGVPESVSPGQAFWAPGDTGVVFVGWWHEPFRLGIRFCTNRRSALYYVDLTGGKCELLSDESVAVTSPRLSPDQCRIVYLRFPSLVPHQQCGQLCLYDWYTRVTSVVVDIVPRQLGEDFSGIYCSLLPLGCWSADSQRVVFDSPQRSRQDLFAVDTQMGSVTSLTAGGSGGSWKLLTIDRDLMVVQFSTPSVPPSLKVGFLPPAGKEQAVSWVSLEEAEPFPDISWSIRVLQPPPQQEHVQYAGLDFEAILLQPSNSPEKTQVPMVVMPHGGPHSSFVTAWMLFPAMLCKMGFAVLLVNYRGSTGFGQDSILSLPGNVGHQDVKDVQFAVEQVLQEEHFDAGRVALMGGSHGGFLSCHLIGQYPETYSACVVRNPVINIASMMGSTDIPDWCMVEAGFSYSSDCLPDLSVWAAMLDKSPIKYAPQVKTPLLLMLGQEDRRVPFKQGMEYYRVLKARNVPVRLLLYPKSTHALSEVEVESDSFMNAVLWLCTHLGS
Protocol: The time-dependent inhibition of SsCEI 4 and t10c12-CLA towards APEH was assessed. Mixtures containing appropriate amounts of each inhibitor and of APEH were pre-incubated for 20 min at 37°C; they were then diluted (1∶5) into the standard assay mixture, which contained the substrate only. The enzymatic activity was followed as described above. Control samples were prepared by pre-incubating the same amounts of APEH without the inhibitors and then diluted in the standard assay mixture.

APEH in BHK cells = test: APEH activity in BHK cells; assay type: cell-based, Baby Hamster; settings: 50 and 100 µM, 48 h
Protocol: APEH activity was expressed in IU.
as §1

[2] = system: ΔF508 CFTR-3HA (CFTR-M) in BHK cells; test: CFTR-M accumulation in BHK cells (immunoblot); assay type: cell-based, Baby Hamster; settings: 100 µM, 24 h, densitometry vs untreated
Protocol: as §1

[3] = system: proteasome CT-like activity in BHK cells; test: CT-like proteasome activity in BHK cells; assay type: cell-based, Baby Hamster; settings: 50 and 100 µM, 48 h
Protocol: as §1

[4] = system: caspase-3 in Caco-2 cells; test: Caspase-3 activity in Caco-2 cells; assay type: cell-based, human; settings: 48 h
Protocol: The pro-apoptotic ability of the peptides and the CLA isomers were assayed by measuring the caspase-3 and caspase-8 activities using fluorometric kits, according to the manufacturer instructions. These assays were based on hydrolysis of the substrate acetyl-Asp-Glu-Val-Asp-7-amido-4-methylcoumarin (Ac-DEVD-AMC) or acetyl-Ile-Glu-Thr-Asp-7-amino-4-methyl coumarin (Ac-IETD-AMC) by caspase-3 and caspase-8, respectively. The release of the 7-AMC moiety in protein extracts prepared from the differently treated cells was evaluated by fluorimetry (excitation 360 nm, emission 460 nm). Their amounts were calculated by means of a standard curve prepared with pure AMC, and following normalisation for protein content, the activities were expressed as nmoles AMC/mg protein/min.

`CCCCC/C=C\C=C\CCCCCCCCC(=O)O` [t10c12-CLA, trans10-cis12 CLA] was tested, and the “effect on partially purified proteasome CT-like activity” value [1] was “not affected”, the “cytotoxic effects in BHK cells” value (BHK cells) was “without any cytotoxic effects” and the “toxicity (LDH release) compared with MG132” value (Caco-2 cells; 200 µM SsCEI 4 or t10c12-CLA, 100 µM ebelactone, MG132 10 µM) was “significantly lower than that observed in culture incubated with MG132”. For the same compound, the “cytotoxic effect (LDH activity levels)” value (Caco-2 cells; up to highest concentration 200 µM) was “not associated with any cytotoxic effect”, the “inhibition of APEH after pre-incubation with the enzyme” value (porcine APEH) was 43% and the “APEH activity in BHK cells” value (APEH in BHK cells) was “dose-dependent inhibition”. The “increase of CFTR-M levels” value [2] was “five”, the “proteasome CT-like activity in BHK cells” value [3] was “dose-dependent inhibition” and the caspase-3 activity increase ([4]; 200 µM, vs untreated, P<0.01) was “about two”. The “caspase-3 activity, dose response” value ([4]; increasing concentrations up to 200 µM) was “improved at increasing doses”.
